Source: paper PMC3306499 (ACS Chemical Biology, 2012)
Structures can show the parent of a compound that is named as a salt. Where two headings read alike, the source gives them in different places. Values belong to the molecule of their own block, whether it stands above or below them.

Columns and labels:
[1] = biological target: HIV-1 RNase H (Human immunodeficiency virus type 1 group M subtype B, UniProt P04585); test: HIV-1 RNase H inhibition assay; type: biochemical
[2] = biological target: human A3G (APOBEC3G) (Homo sapiens, UniProt Q9HC16); test: fluorescence-based ssDNA cytosine deaminase assay, A3G; type: biochemical
[3] = biological target: human A3A (APOBEC3A) (Homo sapiens, UniProt P31941); test: fluorescence-based ssDNA cytosine deaminase assay, A3A; type: biochemical
[4] = biological target: HIV-1 integrase (Human immunodeficiency virus type 1 group M subtype B, UniProt P04585); test: concerted HIV-1 integration assay; type: biochemical
[5] = biological target: E. coli uracil DNA glycosylase (UDG) (Escherichia coli, UniProt P12295); test: UDG assay; type: biochemical
[6] = biological target: HIV RNase H; details: read-out: IC50 Values RNase H, cited from earlier work
[7] = read-out: IC50 Values RNase H, A3G inhibitors, this study
[8] = read-out: IC50 Values A3G, dose response, purified full-length A3G-mycHis
[9] = read-out: IC50 Values A3A, dose response, purified A3A-mycHis
[10] = read-out: IC50 Values UDG, no deaminase, uracil ssDNA substrate

Sequence of E. coli uracil DNA glycosylase (UDG) (P12295 whole entry): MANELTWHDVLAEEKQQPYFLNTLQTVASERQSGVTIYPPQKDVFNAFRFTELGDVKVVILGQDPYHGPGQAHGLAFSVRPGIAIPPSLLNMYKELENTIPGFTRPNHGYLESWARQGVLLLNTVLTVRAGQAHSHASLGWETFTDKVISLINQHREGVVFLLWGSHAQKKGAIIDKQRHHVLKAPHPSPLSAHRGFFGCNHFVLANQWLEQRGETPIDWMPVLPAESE
Sequence of human A3G (APOBEC3G) (Q9HC16 whole entry): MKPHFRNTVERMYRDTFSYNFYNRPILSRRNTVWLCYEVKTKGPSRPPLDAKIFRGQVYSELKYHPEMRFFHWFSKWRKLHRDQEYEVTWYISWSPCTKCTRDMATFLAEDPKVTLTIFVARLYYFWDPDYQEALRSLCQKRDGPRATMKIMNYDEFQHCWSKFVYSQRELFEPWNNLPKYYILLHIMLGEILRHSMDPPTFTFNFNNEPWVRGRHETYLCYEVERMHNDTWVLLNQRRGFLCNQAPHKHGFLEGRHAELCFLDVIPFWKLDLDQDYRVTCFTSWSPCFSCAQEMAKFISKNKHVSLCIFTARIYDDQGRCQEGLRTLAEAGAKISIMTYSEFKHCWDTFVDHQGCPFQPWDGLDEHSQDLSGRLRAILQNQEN
Sequence of human A3A (APOBEC3A) (P31941 whole entry): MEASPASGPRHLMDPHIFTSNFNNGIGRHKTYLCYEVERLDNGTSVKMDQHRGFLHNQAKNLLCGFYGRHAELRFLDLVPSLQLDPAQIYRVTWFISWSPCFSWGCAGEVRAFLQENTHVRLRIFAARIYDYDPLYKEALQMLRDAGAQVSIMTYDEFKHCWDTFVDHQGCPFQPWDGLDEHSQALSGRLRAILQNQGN

SMILES: Oc1cc2c(cc1O)[C@H]1c3ccccc3CN[C@@H]1CC2 (racemic) [MN8, Dihydrexidine hydrochloride]
- IC50 [1]: > 25 µM
- IC50 [2]: 0.59 µM
- IC50 [3]: > 200 µM
- IC50 [4]: > 25 µM
- IC50 [5]: > 200 µM

SMILES: NC1CCc2cc(O)c(O)cc2C1 (racemic) [MN13, (±)-2-Amino-6,7-dihydroxy-1,2,3,4-tetrahydronaphthalene hydrobromide]
- IC50 [1, 7]: > 25 µM
- IC50 [2, 8]: 0.7 µM
- IC50 [3, 9]: > 200 µM
- IC50 [5, 10]: > 200 µM

SMILES: Oc1cc2c(cc1O)C(c1ccccc1)CNCC2 (racemic) [MN15, (±)-SKF-38393 hydrochloride]
- IC50 [2, 8]: 27 µM
- IC50 [3, 9]: > 200 µM
- IC50 [5, 10]: > 200 µM

SMILES: NC(Cc1cc(O)c(O)cc1O)C(=O)O (racemic) [MN23, 6-Hydroxy-DL-DOPA]
- inhibition of A3G catalytic activity (in words) [2]: inhibit A3G catalytic activity
- IC50 [2, 8]: 4 µM
- inhibition of A3A (in words) [3]: inhibit A3A
- IC50 [5, 10]: > 200 µM

SMILES: CC(N)(Cc1ccc(O)c(O)c1)C(=O)O (racemic) [MN28, (±)–3-(3,4-Dihydroxyphenyl)-2-methyl-DL-alanine]
- IC50 [1, 7]: > 25 µM
- IC50 [2, 8]: 13 µM
- IC50 [3, 9]: > 200 µM
- IC50 [5, 10]: > 200 µM

SMILES: O=C(/C=C/c1ccc(O)c(O)c1)OCCc1ccccc1 [CAPE, caffeic acid phenethyl ester, reference compound]
- IC50 [2]: > 100 µM
- inhibition of A3G catalytic activity (in words) [2]: no significant effect
- inhibition of A3A (in words) [3]: no significant effect

SMILES: O=C(/C=C/c1ccc(O)c(O)c1)O[C@@H]1C[C@](O)(C(=O)O)C[C@@H](O)[C@H]1O [Chlorogenic acid, reference compound]
- IC50 [2]: > 100 µM
- inhibition of A3G catalytic activity (in words) [2]: no effect

SMILES: O=C(NN=Cc1c(O)ccc2ccccc12)c1cc(O)c(O)c(O)c1 [KMMP-02 (THBNH), reference compound]
- IC50 [2, 8]: > 100 µM
- IC50 ([6]; ref M. Parniak, unpublished): 0.2 µM

SMILES: COc1ccc2ccccc2c1/C=N/NC(=O)c1ccc(O)c(O)c1 [KMMP-05 (DHBNH), reference compound]
- IC50 [2, 8]: > 100 µM
- IC50 ([6]; published value): 0.5 µM

SMILES: O=C(/C=C/c1ccc(O)c(O)c1)O[C@@H](C(=O)O)[C@@H](OC(=O)/C=C/c1ccc(O)c(O)c1)C(=O)O [L-Chicoric Acid, reference compound]
- inhibition of A3G catalytic activity (in words) [2]: inhibited
- IC50 [2, 8]: 2.8 µM
- inhibition of A3A (in words) [3]: inhibited

SMILES: O=C(O)[C@H](O)[C@@H](O)C(=O)O [L-Tartaric Acid, reference compound]
- IC50 [2]: > 100 µM
- inhibition of A3G catalytic activity (in words) [2]: no effect

SMILES: O=C(O)C1=CC(=C(c2ccc(O)c(C(=O)O)c2)c2ccc(O)c(C(=O)O)c2)C=CC1=O [MN1, Aurintricarboxylic acid]
- IC50 [2]: 0.49 µM
- IC50 [5]: 15 µM
- inhibition of UDG activity (in words) [5]: blocked UDG activity

SMILES: CN1CCc2cccc3c2[C@H]1Cc1ccc(O)c(O)c1-3 [MN2, R-(−)-Apomorphine hydrochloride hemihydrate]
- IC50 [1]: > 25 µM
- IC50 [2]: 1.3 µM
- IC50 [3]: > 200 µM
- IC50 [4]: > 25 µM
- IC50 [5]: > 200 µM

SMILES: O=C1C=CC(=O)C=C1 [MN4, p-Benzoquinone]
- IC50 [2, 8]: 0.17 µM
- IC50 [3, 9]: > 200 µM

SMILES: O=C(O)/C=C/c1ccc(O)c(O)c1 [MN5, Caffeic acid]
- IC50 [2]: 85 µM
- IC50 [3]: > 200 µM
- IC50 [5]: > 200 µM

SMILES: O=C(O)c1cc[c]([Hg][Cl])cc1 [MN6, 4-Chloromercuribenzoic acid]
- IC50 [2, 8]: 0.13 µM
- IC50 [3, 9]: 0.26 µM

Further lines, with some results ahead:

- IC50 [2, 8]: 13 µM
SMILES: O=C(O)c1ccc(-c2cccc(/C=N/NC(=O)c3cc(O)c(O)c(O)c3)c2)cc1 [BHMP-07, reference compound]
- IC50 ([6]; published value): 0.1 µM

- IC50 [2, 8]: 0.45 µM
- IC50 [3, 9]: > 200 µM
SMILES: CC(=O)NCCc1ccc(O)c(O)c1 [MN3, N-Acetyldopamine monohydrate]

- IC50 [2]: 7.5 µM
- IC50 [3]: 12 µM
SMILES: CC(=O)OCC1=C(C(=O)O)N2C(=O)[C@@H](NC(=O)CSc3ccncc3)[C@H]2SC1 [MN7, Cephapirin sodium salt]

- IC50 [2]: 5.3 µM
- IC50 [3]: > 200 µM
SMILES: C[C@@](Cc1ccc(O)c(O)c1)(NN)C(=O)O [MN9, S-(−)-Carbidopa]
